Results as given in patent US20230257396A1, “MACROCYCLES AND THEIR USE” (BLOSSOMHILL THERAPEUTICS, INC., priority 2020, published 2023).
Blank lines part the entries; values can stand above or below the molecule they belong to.

What was measured:
Experiment in all cases: KINOMEscan kinase binding assay (Eurofins/DiscoveRx), % Ctrl
Conditions in all cases: 1 μM
kinases [1] = molecular target: T1, kinases (Homo sapiens, UniProt P07949, M918T)
T1 construct: purchased Eurofins/DiscoveRx; host or cells: E. coli BL21-derived host (T7 phage display) for most kinases; HEK-293 for the rest
T1 sequence (P07949 29-1114 M918T): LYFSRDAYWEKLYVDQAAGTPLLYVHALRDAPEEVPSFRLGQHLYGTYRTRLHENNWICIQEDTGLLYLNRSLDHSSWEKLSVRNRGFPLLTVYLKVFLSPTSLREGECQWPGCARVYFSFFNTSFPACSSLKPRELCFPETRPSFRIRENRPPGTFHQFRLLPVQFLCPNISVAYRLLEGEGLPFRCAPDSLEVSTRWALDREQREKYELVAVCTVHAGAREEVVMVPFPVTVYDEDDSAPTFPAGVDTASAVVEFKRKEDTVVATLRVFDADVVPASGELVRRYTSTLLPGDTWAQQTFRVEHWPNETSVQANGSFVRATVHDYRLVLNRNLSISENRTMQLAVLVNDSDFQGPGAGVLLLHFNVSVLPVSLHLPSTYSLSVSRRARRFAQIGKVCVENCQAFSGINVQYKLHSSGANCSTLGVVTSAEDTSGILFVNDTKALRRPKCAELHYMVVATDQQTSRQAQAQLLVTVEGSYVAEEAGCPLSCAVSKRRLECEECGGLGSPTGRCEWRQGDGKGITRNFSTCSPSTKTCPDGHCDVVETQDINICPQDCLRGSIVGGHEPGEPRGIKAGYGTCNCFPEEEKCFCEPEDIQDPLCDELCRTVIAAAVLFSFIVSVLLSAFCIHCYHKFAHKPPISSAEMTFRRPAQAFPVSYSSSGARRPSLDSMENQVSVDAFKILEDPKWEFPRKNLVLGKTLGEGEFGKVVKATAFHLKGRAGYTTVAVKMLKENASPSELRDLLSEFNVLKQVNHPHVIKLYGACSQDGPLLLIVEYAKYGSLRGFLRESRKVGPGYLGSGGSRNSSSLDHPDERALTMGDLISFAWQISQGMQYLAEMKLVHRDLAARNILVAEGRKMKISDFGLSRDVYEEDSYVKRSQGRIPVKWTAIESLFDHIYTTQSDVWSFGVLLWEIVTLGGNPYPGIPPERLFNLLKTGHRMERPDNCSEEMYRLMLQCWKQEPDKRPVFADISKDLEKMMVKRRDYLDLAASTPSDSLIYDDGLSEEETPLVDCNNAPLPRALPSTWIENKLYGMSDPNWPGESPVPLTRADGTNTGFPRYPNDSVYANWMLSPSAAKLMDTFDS
Procedure, shortened: (§1)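 Competition binding: DNA- or phage-tagged kinases (T7 phage in E. coli BL21, or HEK-293-expressed) with immobilized biotinylated ligand beads and test compound, 1 h at room temperature. Bead-bound kinase eluted and quantified by qPCR; % Ctrl = (compound − positive control)/(negative control − positive control) ×100 at a single compound concentration.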

kinases [2] = molecular target: T2, kinases (Homo sapiens, UniProt P00519, M351T)
T2 construct: purchased Eurofins/DiscoveRx; host or cells: E. coli BL21-derived host (T7 phage display) for most kinases; HEK-293 for the rest
Procedure, shortened: as §1

kinases [3] = molecular target: T3, kinases (Homo sapiens, UniProt P09619)
T3 construct: purchased Eurofins/DiscoveRx; host or cells: E. coli BL21-derived host (T7 phage display) for most kinases; HEK-293 for the rest
T3 sequence (P09619 33-1106): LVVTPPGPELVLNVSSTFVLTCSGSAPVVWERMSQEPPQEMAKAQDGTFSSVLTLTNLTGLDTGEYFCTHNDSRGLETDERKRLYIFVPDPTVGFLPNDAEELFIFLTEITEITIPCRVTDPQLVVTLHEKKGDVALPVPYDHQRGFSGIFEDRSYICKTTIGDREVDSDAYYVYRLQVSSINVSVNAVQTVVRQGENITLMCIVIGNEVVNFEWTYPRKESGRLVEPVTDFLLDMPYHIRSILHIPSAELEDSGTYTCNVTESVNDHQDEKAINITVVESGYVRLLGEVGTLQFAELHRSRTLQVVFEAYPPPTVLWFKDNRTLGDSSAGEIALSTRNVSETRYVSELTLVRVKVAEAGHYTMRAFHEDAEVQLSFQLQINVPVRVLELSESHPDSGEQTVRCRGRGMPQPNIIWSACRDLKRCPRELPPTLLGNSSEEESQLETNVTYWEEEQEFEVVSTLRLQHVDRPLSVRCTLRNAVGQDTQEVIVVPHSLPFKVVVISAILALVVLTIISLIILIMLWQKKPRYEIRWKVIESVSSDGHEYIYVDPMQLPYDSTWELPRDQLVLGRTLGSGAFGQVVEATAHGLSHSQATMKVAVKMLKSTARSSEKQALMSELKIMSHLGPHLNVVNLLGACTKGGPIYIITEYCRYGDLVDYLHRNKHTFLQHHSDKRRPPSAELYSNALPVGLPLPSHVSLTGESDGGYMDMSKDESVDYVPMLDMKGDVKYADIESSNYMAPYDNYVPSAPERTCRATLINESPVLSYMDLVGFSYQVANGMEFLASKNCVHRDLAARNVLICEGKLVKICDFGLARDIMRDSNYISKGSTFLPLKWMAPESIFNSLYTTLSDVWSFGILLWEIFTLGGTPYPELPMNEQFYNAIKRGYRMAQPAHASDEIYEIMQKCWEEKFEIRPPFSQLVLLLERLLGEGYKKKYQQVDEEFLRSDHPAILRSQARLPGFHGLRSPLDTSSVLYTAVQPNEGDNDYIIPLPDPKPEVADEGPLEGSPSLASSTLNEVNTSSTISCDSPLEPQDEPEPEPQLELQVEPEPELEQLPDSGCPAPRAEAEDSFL
Procedure, shortened: as §1

kinases [4] = molecular target: T4, kinases (Homo sapiens, UniProt P35916)
T4 construct: purchased Eurofins/DiscoveRx; host or cells: E. coli BL21-derived host (T7 phage display) for most kinases; HEK-293 for the rest
Procedure, shortened: as §1

kinases [5] = molecular target: T5, kinases (Homo sapiens, UniProt P42684)
T5 construct: purchased Eurofins/DiscoveRx; host or cells: E. coli BL21-derived host (T7 phage display) for most kinases; HEK-293 for the rest
T5 sequence (P42684 whole entry): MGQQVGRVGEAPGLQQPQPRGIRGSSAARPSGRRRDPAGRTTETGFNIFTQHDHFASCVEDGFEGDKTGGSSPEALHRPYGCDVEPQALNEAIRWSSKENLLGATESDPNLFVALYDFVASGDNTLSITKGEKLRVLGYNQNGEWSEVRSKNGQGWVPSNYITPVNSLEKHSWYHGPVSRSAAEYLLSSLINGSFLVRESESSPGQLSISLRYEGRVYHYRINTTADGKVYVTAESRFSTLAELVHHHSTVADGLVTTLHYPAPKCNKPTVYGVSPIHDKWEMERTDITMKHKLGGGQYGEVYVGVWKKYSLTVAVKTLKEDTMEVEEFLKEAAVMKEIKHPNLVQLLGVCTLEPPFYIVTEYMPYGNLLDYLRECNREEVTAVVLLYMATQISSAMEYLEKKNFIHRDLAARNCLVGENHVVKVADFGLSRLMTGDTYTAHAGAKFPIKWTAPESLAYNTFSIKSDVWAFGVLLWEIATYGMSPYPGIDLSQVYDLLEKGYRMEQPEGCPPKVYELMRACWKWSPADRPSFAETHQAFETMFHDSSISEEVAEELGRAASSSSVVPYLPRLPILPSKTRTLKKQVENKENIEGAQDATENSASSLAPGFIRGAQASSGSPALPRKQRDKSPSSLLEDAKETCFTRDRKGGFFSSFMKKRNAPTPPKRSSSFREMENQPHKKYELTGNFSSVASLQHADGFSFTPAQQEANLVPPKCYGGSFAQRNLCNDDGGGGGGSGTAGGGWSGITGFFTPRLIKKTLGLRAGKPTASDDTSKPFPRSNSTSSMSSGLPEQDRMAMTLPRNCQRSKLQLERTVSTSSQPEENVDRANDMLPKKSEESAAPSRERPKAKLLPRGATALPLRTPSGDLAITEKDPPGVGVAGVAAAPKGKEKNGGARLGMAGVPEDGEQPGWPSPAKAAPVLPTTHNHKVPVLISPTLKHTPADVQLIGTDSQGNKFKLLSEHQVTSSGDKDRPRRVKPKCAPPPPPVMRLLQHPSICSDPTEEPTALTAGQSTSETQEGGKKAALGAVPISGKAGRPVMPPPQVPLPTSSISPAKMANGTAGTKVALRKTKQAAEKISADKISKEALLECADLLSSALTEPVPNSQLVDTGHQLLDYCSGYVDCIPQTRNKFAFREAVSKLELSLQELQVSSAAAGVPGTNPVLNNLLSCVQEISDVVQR
Procedure, shortened: as §1

kinases [6] = molecular target: T6, kinases (Homo sapiens, UniProt P07949, V804L)
T6 construct: purchased Eurofins/DiscoveRx; host or cells: E. coli BL21-derived host (T7 phage display) for most kinases; HEK-293 for the rest
T6 sequence (P07949 29-1114 V804L): as the sequence (P07949 29-1114 M918T) above, with V776L, T890M counted along it
Procedure, shortened: as §1

kinases [7] = molecular target: T7, kinases (Homo sapiens, UniProt P07949, V804M)
T7 construct: purchased Eurofins/DiscoveRx; host or cells: E. coli BL21-derived host (T7 phage display) for most kinases; HEK-293 for the rest
T7 sequence (P07949 29-1114 V804M): as the sequence (P07949 29-1114 M918T) above, with V776M, T890M counted along it
Procedure, shortened: as §1

kinases [8] = molecular target: T8, kinases (Homo sapiens, UniProt P10721, V559D)
T8 construct: purchased Eurofins/DiscoveRx; host or cells: E. coli BL21-derived host (T7 phage display) for most kinases; HEK-293 for the rest
T8 sequence (P10721 26-976 V559D): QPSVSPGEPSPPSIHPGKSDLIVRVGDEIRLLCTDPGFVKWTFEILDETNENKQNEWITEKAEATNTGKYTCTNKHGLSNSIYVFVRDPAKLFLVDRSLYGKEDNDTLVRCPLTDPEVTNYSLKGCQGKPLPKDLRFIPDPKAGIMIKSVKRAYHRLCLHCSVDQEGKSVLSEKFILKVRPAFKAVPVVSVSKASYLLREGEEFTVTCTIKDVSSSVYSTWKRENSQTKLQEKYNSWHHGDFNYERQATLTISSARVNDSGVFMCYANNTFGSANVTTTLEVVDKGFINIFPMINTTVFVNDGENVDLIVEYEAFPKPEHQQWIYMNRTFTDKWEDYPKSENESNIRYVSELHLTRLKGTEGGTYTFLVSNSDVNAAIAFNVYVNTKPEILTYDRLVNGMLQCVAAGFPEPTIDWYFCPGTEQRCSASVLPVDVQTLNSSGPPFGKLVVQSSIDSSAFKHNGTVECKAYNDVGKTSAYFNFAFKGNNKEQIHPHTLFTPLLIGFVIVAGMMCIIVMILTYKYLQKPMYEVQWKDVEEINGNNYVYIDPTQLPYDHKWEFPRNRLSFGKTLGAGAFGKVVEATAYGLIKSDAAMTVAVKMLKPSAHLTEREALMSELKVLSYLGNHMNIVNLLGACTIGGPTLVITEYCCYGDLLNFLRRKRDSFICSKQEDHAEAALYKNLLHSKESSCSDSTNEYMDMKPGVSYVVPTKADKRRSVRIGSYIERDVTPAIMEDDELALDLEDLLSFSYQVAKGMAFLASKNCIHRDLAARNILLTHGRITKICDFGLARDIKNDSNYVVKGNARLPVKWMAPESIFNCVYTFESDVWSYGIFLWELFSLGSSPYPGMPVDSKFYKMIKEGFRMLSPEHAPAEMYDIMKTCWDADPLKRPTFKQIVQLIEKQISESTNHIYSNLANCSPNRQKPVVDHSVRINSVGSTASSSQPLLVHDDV
Procedure, shortened: as §1

kinases [9] = molecular target: T9, kinases (Homo sapiens, UniProt P10721, D816H)
T9 construct: purchased Eurofins/DiscoveRx; host or cells: E. coli BL21-derived host (T7 phage display) for most kinases; HEK-293 for the rest
T9 sequence (P10721 26-976 D816H): as the sequence (P10721 26-976 V559D) above, with D534V, D791H counted along it
Procedure, shortened: as §1

kinases [10] = molecular target: T10, kinases (Homo sapiens, UniProt P36888)
T10 construct: purchased Eurofins/DiscoveRx; host or cells: E. coli BL21-derived host (T7 phage display) for most kinases; HEK-293 for the rest
T10 sequence (P36888 27-993): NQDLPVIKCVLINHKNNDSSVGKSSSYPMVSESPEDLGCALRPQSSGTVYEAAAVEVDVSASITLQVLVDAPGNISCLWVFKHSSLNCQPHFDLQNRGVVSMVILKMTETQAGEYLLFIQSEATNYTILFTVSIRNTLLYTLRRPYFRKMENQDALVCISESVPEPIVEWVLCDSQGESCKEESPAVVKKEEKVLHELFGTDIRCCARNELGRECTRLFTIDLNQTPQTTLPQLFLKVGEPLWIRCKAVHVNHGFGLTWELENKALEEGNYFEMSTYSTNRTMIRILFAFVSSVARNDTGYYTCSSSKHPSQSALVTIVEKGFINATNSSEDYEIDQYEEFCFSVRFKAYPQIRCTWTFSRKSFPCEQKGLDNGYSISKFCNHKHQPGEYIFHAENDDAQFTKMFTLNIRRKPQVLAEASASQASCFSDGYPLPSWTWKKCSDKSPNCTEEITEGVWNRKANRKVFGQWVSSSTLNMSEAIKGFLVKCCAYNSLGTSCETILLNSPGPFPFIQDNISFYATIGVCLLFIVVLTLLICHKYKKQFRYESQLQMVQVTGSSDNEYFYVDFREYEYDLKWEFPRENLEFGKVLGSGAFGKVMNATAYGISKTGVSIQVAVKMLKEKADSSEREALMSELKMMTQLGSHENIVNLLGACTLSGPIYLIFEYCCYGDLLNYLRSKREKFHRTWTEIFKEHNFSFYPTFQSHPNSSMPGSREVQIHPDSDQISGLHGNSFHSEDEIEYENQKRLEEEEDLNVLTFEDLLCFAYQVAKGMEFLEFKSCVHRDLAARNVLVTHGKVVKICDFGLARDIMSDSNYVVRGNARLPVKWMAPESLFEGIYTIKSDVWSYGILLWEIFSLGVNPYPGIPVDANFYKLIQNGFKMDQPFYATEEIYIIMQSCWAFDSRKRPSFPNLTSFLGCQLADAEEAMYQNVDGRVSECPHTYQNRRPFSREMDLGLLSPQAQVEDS
Procedure, shortened: as §1

kinases [11] = molecular target: T11, kinases (Homo sapiens, UniProt P00533, DEL752-759)
T11 construct: purchased Eurofins/DiscoveRx; host or cells: E. coli BL21-derived host (T7 phage display) for most kinases; HEK-293 for the rest
Procedure, shortened: as §1

kinases [12] = molecular target: T12, kinases (Homo sapiens, UniProt P00533, L861Q)
T12 construct: purchased Eurofins/DiscoveRx; host or cells: E. coli BL21-derived host (T7 phage display) for most kinases; HEK-293 for the rest
Procedure, shortened: as §1

kinases [13] = molecular target: T13, kinases (Homo sapiens, UniProt P00533, T790M)
T13 construct: purchased Eurofins/DiscoveRx; host or cells: E. coli BL21-derived host (T7 phage display) for most kinases; HEK-293 for the rest
Procedure, shortened: as §1

kinases [14] = molecular target: T14, kinases (Homo sapiens, UniProt P10721)
T14 construct: purchased Eurofins/DiscoveRx; host or cells: E. coli BL21-derived host (T7 phage display) for most kinases; HEK-293 for the rest
T14 sequence (P10721 26-976): as the sequence (P10721 26-976 V559D) above, with D534V counted along it
Procedure, shortened: as §1

kinases [15] = molecular target: T15, kinases (Homo sapiens, UniProt P00519, H396P)
T15 construct: purchased Eurofins/DiscoveRx; host or cells: E. coli BL21-derived host (T7 phage display) for most kinases; HEK-293 for the rest
Procedure, shortened: as §1

% Ctrl, RET(M918T) (kinases [1]; RET(M918T)): 6.4 % Ctrl | % Ctrl, ABL1(M351T)-phosphorylated (kinases [2]; ABL1(M351T)-phosphorylated): 51 % Ctrl | % Ctrl, PDGFRB (kinases [3]; PDGFRB): 90 % Ctrl | % Ctrl, FLT4 (kinases [4]; FLT4): 95 % Ctrl | % Ctrl, ABL2 (kinases [5]; ABL2): 99 % Ctrl | % Ctrl, RET(V804L) (kinases [6]; RET(V804L)): 37 % Ctrl | % Ctrl, RET(V804M) (kinases [7]; RET(V804M)): 57 % Ctrl | % Ctrl, KIT(V559D) (kinases [8]; KIT(V559D)): 75 % Ctrl | % Ctrl, KIT(D816H) (kinases [9]; KIT(D816H)): 74 % Ctrl | % Ctrl, FLT3 (kinases [10]; FLT3): 55 % Ctrl | % Ctrl, FLT3-autoinhibited (kinases [10]; FLT3-autoinhibited): 77 % Ctrl | % Ctrl, EGFR(S752-I759del) (kinases [11]; EGFR(S752-I759del)): 98 % Ctrl | % Ctrl, EGFR(L861Q) (kinases [12]; EGFR(L861Q)): 100 % Ctrl | % Ctrl, EGFR(T790M) (kinases [13]; EGFR(T790M)): 94 % Ctrl | % Ctrl, KIT (kinases [14]; KIT): 90 % Ctrl | % Ctrl, KIT-autoinhibited (kinases [14]; KIT-autoinhibited): 72 % Ctrl | % Ctrl, ABL1(H396P)-nonphosphorylated (kinases [15]; ABL1(H396P)-nonphosphorylated): 38 % Ctrl | % Ctrl, ABL1(H396P)-phosphorylated (kinases [15]; ABL1(H396P)-phosphorylated): 65 % Ctrl
SMILES: Cc1cc2c([nH]1)/C=C1\C(=O)Nc3cc(Cl)c(cc31)OCCO[C@@H](C(=O)N(C)C)CN(C)C2=O [Ex. 137, [7R,16a(17)Z]-19-chloro-N,N,2,5-tetramethyl-4,16-dioxo-4,5,6,7,9,10,15,16-octahydro-1H-12,14-(ethanediylidene)dipyrrolo[3,2-i:3′,4′-l][1,4,7]dioxazacyclopentadecine-7-carboxamide]

% Ctrl, RET(M918T) (kinases [1]; target RET(M918T)): 92 % Ctrl | % Ctrl, ABL1(M351T)-phosphorylated (kinases [2]; target ABL1(M351T)-phosphorylated): 81 % Ctrl | % Ctrl, PDGFRB (kinases [3]; target PDGFRB): 98 % Ctrl | % Ctrl, FLT4 (kinases [4]; target FLT4): 79 % Ctrl | % Ctrl, ABL2 (kinases [5]; target ABL2): 87 % Ctrl | % Ctrl, RET(V804L) (kinases [6]; target RET(V804L)): 72 % Ctrl | % Ctrl, RET(V804M) (kinases [7]; target RET(V804M)): 83 % Ctrl | % Ctrl, KIT(V559D) (kinases [8]; target KIT(V559D)): 92 % Ctrl | % Ctrl, KIT(D816H) (kinases [9]; target KIT(D816H)): 100 % Ctrl | % Ctrl, FLT3 (kinases [10]; target FLT3): 100 % Ctrl | % Ctrl, FLT3-autoinhibited (kinases [10]; target FLT3-autoinhibited): 100 % Ctrl | % Ctrl, EGFR(S752-I759del) (kinases [11]; target EGFR(S752-I759del)): 81 % Ctrl | % Ctrl, EGFR(L861Q) (kinases [12]; target EGFR(L861Q)): 100 % Ctrl | % Ctrl, EGFR(T790M) (kinases [13]; target EGFR(T790M)): 100 % Ctrl | % Ctrl, KIT (kinases [14]; target KIT): 98 % Ctrl | % Ctrl, KIT-autoinhibited (kinases [14]; target KIT-autoinhibited): 100 % Ctrl | % Ctrl, ABL1(H396P)-nonphosphorylated (kinases [15]; target ABL1(H396P)-nonphosphorylated): 91 % Ctrl | % Ctrl, ABL1(H396P)-phosphorylated (kinases [15]; target ABL1(H396P)-phosphorylated): 100 % Ctrl
SMILES: Cc1cc2c([nH]1)/C=C1\C(=O)Nc3ccc(cc31)-c1c(noc1C(C)C)COCCN(C)C2=O [Ex. 161, [3a(4)Z]-9-methyl-16-(propan-2-yl)-10,11-dihydro-2H,13H-1,17-(ethanediylidene)[1,2]oxazolo[4,3-m]dipyrrolo[3,2-f:3′,4′-i][1,4]oxazacyclopentadecine-3,8(5H,9H)-dione]
